Results published in patent US7057048B2, “Androgen receptor antagonists” (Warner Lambert Company LLC, priority 2003, dated 2006).

target: T1, androgen receptor (Homo sapiens, UniProt P10275); assay: AR Antagonist Cell Assay (MMTV-luciferase reporter, DHT-stimulated); format: cell-based; settings: MDA-MB453-MMTV clone 54-19 cells, inhibition of induction by 100 pM DHT, 17 hr
T1 sequence (P10275 1-920 Q868H): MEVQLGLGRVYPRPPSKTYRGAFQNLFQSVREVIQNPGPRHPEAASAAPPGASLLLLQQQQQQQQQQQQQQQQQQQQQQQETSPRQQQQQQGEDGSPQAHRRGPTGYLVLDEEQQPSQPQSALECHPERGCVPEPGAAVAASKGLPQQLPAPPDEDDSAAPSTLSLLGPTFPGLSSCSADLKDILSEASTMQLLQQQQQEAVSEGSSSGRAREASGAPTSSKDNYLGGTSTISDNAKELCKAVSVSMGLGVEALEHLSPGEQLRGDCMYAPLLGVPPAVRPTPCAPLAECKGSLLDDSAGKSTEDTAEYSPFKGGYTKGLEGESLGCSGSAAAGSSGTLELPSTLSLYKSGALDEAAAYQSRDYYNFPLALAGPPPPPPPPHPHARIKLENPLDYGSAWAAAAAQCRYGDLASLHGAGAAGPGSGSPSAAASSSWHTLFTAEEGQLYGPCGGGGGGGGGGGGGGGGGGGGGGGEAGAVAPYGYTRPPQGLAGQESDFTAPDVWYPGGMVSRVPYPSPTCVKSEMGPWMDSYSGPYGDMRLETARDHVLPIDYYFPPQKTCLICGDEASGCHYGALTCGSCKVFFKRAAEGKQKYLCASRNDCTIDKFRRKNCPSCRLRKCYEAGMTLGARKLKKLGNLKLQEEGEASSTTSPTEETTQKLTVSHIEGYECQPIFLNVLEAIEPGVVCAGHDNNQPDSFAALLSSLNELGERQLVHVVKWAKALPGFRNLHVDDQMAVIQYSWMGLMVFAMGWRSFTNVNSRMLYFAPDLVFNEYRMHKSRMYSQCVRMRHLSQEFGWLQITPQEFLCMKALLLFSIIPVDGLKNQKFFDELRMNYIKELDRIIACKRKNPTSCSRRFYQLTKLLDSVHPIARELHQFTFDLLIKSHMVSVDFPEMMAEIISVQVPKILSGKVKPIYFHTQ
Description: The compounds ability to antagonize the effects of androgen on the androgen receptor were determined in the protocol described immediately below.
Experimental Procedure for AR Antagonist Cell Assay
Cell line: MDA-MB453-MMTV clone 54-19. This cell line is a stable transfected cell line with MDA-MB453 cell background (human breast tumor cell expressing high level of androgen receptor). A MMTV minimal promoter containing ARE was first cloned in front of a firefly luciferase reporter gene. Then the cascade was cloned into transfection vector pUV120puro. Electroporation method was used for transfecting MDA-MB-453 cell. Puromycin resistant stable cell line was selected.
Cell Culture Media and Reagents:
Culture medium: DMEM (high glucose, Gibco cat #: 11960-044), 10% FBS, and 1% L-glutamine
Plating medium: DMEM (phenol red free), 10% charcoal treated HyClone serum, 1% L-glutamine
Assay medium: DMEM (phenol red free), 1% charcoal treated HyClone serum, 1% L-glutamine, and 1% penicillin/streptomycin
3×luciferase buffer: 2% beta-mercaptoethanol, 0.6% ATP, 0.0135% luciferine in cell lysis buffer
• 1. Cells are maintained in culture medium, splitting cells when they reach 80–90% confluence • 2. To test compounds, 10,000 cells/well are plated to opaque 96 cell culture plate in 100 ul/well plating medium, culture for overnight at 37° C. in cell culture incubator • 3. Carefully remove plating medium, then add 80 ul/well of pre-warmed assay medium, add 10 ul/well testing compound (final concentration at 10 uM or 1 uM), incubate at 37° C. for 30 minutes • 4. Add 10 ul/well freshly prepared DHT (final concentration at 100 pM) to each well, incubate at 37° C. for 17 hr (overnight) • 5. Add 50 ul/well 3×luciferase buffer, incubate at room temperature for 5 minutes, then count on Luminometer
The fold induction over background by 100 pM DHT in the absence of testing compounds is standardized as 100% and experimental result is expressed as percentage of inhibition by testing compounds.

| Structure (SMILES) | IC50 [µM] |
| --- | --- |
| O=c1cc(C(F)(F)F)c2cc(Cc3ccc(S(=O)(=O)N4CCC5(CC4)OCCO5)cc3)ccc2o1 [Example 36, 6-[4-(1,4-Dioxa-8-azaspiro[4.5]decane-8-sulfonyl)benzyl]-4-trifluoromethylchromen-2-one] | 7.2 |
| O=c1cc(C(F)(F)F)c2cc(Cc3ccc(S(=O)(=O)N4CCC5(CC4)OCCO5)cc3)ccc2[nH]1 [Example 6, 6-[4-(1,4-Dioxa-8-azaspiro[4.5]decane-8-sulfonyl)benzyl]-4-trifluoromethyl-1H-quinolin-2-one] | > 10 |
| O=c1cc(C(F)(F)F)c2cc(Cc3ccc(S(=O)(=O)N4CCCCCCC4)cc3)ccc2o1 [Example 63, 6-[4-(Azocane-1-sulfonyl)benzyl]-4-trifluoromethylchromen-2-one] | > 10 |
| O=c1cc(C(F)(F)F)c2cc(Cc3ccc(S(=O)(=O)N4CCC(CO)CC4)cc3)ccc2o1 [Example 64, 6-[4-(4-Hydroxymethyl-piperidine-1-sulfonyl)benzyl]-4-trifluoromethylchromen-2-one] | 2.5 |
| COc1ccc(N2CCN(S(=O)(=O)c3ccc(Cc4ccc5oc(=O)cc(C(F)(F)F)c5c4)cc3)CC2C)cc1 (stereo not drawn) [Example 32, 6-{4-[4-(4-Methoxyphenyl)-3-methylpiperazine-1-sulfonyl]benzyl}-4-trifluoromethylchromen-2-one] | 9.3 |
| O=c1cc(C(F)(F)F)c2cc(Cc3ccc(S(=O)(=O)N4CCCCCC4)cc3)ccc2o1 [Example 57, 6-[4-(Azepane-1-sulfonyl)benzyl]-4-trifluoromethylchromen-2-one] | 6.8 |
| O=c1cc(C(F)(F)F)c2cc(Cc3ccc(S(=O)(=O)N4CCCCC4c4cccnc4)cc3)ccc2[nH]1 (stereo not drawn) [Example 14, 6-[4-(3,4,5,6-Tetrahydro-2H-[2,3′]bipyridinyl-1-sulfonyl)benzyl]-4-trifluoromethyl-1H-quinolin-2-one] | 4.7 |
| O=c1cc(C(F)(F)F)c2cc(Cc3ccc(S(=O)(=O)N4CCc5ccccc5C4)cc3)ccc2[nH]1 [Example 2, 6-[4-(3,4-Dihydro-1H-isoquinoline-2-sulfonyl)benzyl]-4-trifluoromethyl-1H-quinolin-2-one] | 6.8 |
| O=c1cc(C(F)(F)F)c2cc(Cc3ccc(S(=O)(=O)N4CCCC5CCCCC54)cc3)ccc2[nH]1 (stereo not drawn) [Example 19, 6-[4-(Octahydroquinoline-1-sulfonyl)benzyl]-4-trifluoromethyl-1H-quinolin-2-one] | > 10 |
| O=c1cc(C(F)(F)F)c2cc(Cc3ccc(S(=O)(=O)N4CCN(c5ccncc5)CC4)cc3)ccc2o1 [Example 50, 6-[4-(4-Pyridin-4-ylpiperazine-1-sulfonyl)benzyl]-4-trifluoromethylchromen-2-one] | 1.6 |
| O=c1cc(C(F)(F)F)c2cc(Cc3ccc(S(=O)(=O)N4CCCC(O)C4)cc3)ccc2o1 (stereo not drawn) [Example 27, 6-[4-(3-Hydroxypiperidine-1-sulfonyl)benzyl]-4-trifluoromethylchromen-2-one] | > 10 |
| O=c1cc(C(F)(F)F)c2cc(Cc3ccc(S(=O)(=O)N4CCCN(CCc5ccccc5)CC4)cc3)ccc2o1 [Example 54] | 2.5 |
| CC(C)N(CCN1CCN(S(=O)(=O)c2ccc(Cc3ccc4oc(=O)cc(C(F)(F)F)c4c3)cc2)CC1)C(C)C [Example 44, 6-{4-[4-(2-Diisopropylamino-ethyl)piperazine-1-sulfonyl]benzyl}-4-trifluoromethylchromen-2-one] | 5.2 |
| O=C(CN1CCN(S(=O)(=O)c2ccc(Cc3ccc4[nH]c(=O)cc(C(F)(F)F)c4c3)cc2)CC1)N1CCCC1 [Example 13, 6-{4-[4-(2-Oxo-2-pyrrolidin-1-ylethyl)piperazine-1-sulfonyl]benzyl}-4-trifluoromethyl-1H-quinolin-2-one] | > 10 |
| COc1ccc(N2CCN(S(=O)(=O)c3ccc(Cc4ccc5[nH]c(=O)cc(C(F)(F)F)c5c4)cc3)CC2C)cc1 (stereo not drawn) [Example 3, 6-{4-[4-(4-Methoxyphenyl)-3-methylpiperazine-1-sulfonyl]benzyl}-4-trifluoromethyl-1H-quinolin-2-one] | > 10 |
| CC1CCN(S(=O)(=O)c2ccc(Cc3ccc4oc(=O)cc(C(F)(F)F)c4c3)cc2)CC1 [Example 49, 6-[4-(4-Methylpiperidine-1-sulfonyl)benzyl]-4-trifluoromethylchromen-2-one] | > 10 |
| O=c1cc(C(F)(F)F)c2cc(Cc3ccc(S(=O)(=O)N4CCCCC4)cc3)ccc2[nH]1 [Example 23, 6-[4-(Piperidine-1-sulfonyl)benzyl]-4-trifluoromethyl-1H-quinolin-2-one] | > 10 |
| O=c1cc(C(F)(F)F)c2cc(Cc3ccc(S(=O)(=O)N4CCCC4CO)cc3)ccc2o1 (stereo not drawn) [Example 52, 6-[4-(2-Hydroxymethyl-pyrrolidine-1-sulfonyl)benzyl]-4-trifluoromethylchromen-2-one] | 3.4 |
| O=c1cc(C(F)(F)F)c2cc(Cc3ccc(S(=O)(=O)N4CCN(CCCO)CC4)cc3)ccc2o1 [Example 31, 6-{4-[4-(3-Hydroxypropyl)piperazine-1-sulfonyl]benzyl}-4-trifluoromethylchromen-2-one] | 8.2 |
| COc1cc2c(cc1OC)CN(S(=O)(=O)c1ccc(Cc3ccc4[nH]c(=O)cc(C(F)(F)F)c4c3)cc1)CC2 [Example 5, 6-[4-(6,7-Dimethoxy-3,4-dihydro-1H-isoquinoline-2-sulfonyl)benzyl]-4-trifluoromethyl-1H-quinolin-2-one] | > 10 |
| CCN1CCN(S(=O)(=O)c2ccc(Cc3ccc4[nH]c(=O)cc(C(F)(F)F)c4c3)cc2)CC1 [Example 8, 6-[4-(4-Ethylpiperazine-1-sulfonyl)benzyl]-4-trifluoromethyl-1H-quinolin-2-one] | > 10 |
| CCOC(=O)C1CCCN(S(=O)(=O)c2ccc(Cc3ccc4[nH]c(=O)cc(C(F)(F)F)c4c3)cc2)C1 (stereo not drawn) [Example 1, 1-[4-(2-Oxo-4-trifluoromethyl-1,2-dihydroquinolin-6-ylmethyl)benzenesulfonyl]-piperidine-3-carboxylicacid ethyl ester] | > 10 |
| COCCN1CCN(S(=O)(=O)c2ccc(Cc3ccc4oc(=O)cc(C(F)(F)F)c4c3)cc2)CC1 [Example 39, 6-{4-[4-(2-Methoxyethyl)piperazine-1-sulfonyl]benzyl}-4-trifluoromethylchromen-2-one] | 9.4 |
| O=c1cc(C(F)(F)F)c2cc(Cc3ccc(S(=O)(=O)N4CCCCC4CO)cc3)ccc2[nH]1 (stereo not drawn) [Example 7, 6-[4-(2-Hydroxymethylpiperidine-1-sulfonyl)benzyl]-4-trifluoromethyl-1H-quinolin-2-one] | 9.8 |
| CCOC(=O)C1CCCN(S(=O)(=O)c2ccc(Cc3ccc4oc(=O)cc(C(F)(F)F)c4c3)cc2)C1 (stereo not drawn) [Example 28, 1-[4-(2-Oxo-4-trifluoromethyl-2H-chromen-6-ylmethyl)-benzenesulfonyl]piperidine-3-carboxylic acid ethylester] | > 10 |
| O=c1cc(C(F)(F)F)c2cc(Cc3ccc(S(=O)(=O)N4CCCCC4CCO)cc3)ccc2o1 (stereo not drawn) [Example 51, 6-{4-[2-(2-Hydroxyethyl)piperidine-1-sulfonyl]benzyl}-4-trifluoromethylchromen-2-one] | > 10 |
| CN(C)CCN1CCN(S(=O)(=O)c2ccc(Cc3ccc4oc(=O)cc(C(F)(F)F)c4c3)cc2)CC1 [Example 55, 6-{4-[4-(2-Dimethylamino-ethyl)piperazine-1-sulfonyl]benzyl}-4-trifluoromethylchromen-2-one] | > 10 |
